Assay [1] concerns the target T1, FtsZ (Bacillus subtilis, UniProt P17865).
T1 sequence (P17865 1-382): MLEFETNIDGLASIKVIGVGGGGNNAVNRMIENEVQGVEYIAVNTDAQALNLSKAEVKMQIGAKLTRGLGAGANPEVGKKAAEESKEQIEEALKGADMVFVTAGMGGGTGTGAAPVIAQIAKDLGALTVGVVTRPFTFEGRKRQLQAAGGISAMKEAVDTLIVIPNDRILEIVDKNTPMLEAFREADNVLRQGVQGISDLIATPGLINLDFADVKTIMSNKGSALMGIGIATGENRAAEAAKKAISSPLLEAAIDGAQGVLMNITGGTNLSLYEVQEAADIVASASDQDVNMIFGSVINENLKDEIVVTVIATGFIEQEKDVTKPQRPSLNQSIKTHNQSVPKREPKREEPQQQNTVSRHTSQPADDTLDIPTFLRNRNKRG
The experiment in a line: fluorescence titration with purified FtsZ (poorer fit, R^[…] = […]); also GTPase inhibition and sedimentation. The assay is classed as binding.

The target in assay [2] is T1, FtsZ. The assay is described as follows: malachite green GTPase assay at […] with Triton X-100 (Kd could not be calculated). The assay is classed as biochemical.
In assay [3] the target is T1, FtsZ. The assay is described as follows: fluorescence titration (intrinsic alkyl gallate fluorescence) with purified FtsZ; also GTPase inhibition and sedimentation. The assay is classed as binding.

On FtsZ [1], `CCCCCOC(=O)c1cc(O)c(O)c(O)c1` [compound 8, Pentyl gallate] displayed a Kd of around 3.1 µM.

Take `CCCCCCOC(=O)c1cc(O)c(O)c(O)c1` [compound 9, Hexyl gallate]: on FtsZ [2], the “malachite green GTPase assay at 50 μg/mL with Triton X-100 (Kd could not be calc)” value is “All of the compounds showed similar levels of inhibition of the GTPase activity of FtsZ”.

In the case of `CCCCCCCOC(=O)c1cc(O)c(O)c(O)c1` [compound 10, Heptyl gallate], binding at FtsZ [3] was characterised by a dissociation constant (Kd) of 80 ± 30 nM.

For the molecule `CCCCCCCCOC(=O)c1cc(O)c(O)c(O)c1` [compound 11, Octyl gallate], at FtsZ [3], the affinity, expressed as Kd, was 840 ± 220 nM.

The values are drawn from paper PMC4413848, “Antibacterial activity of alkyl gallates is a combination of direct targeting of FtsZ and permeabilization of bacterial membranes” (Frontiers in Microbiology, 2015).
